Counter-ions that a name gives are not always drawn. Like-named read-outs stand apart in the source and are kept apart here.
Tests used:
[1] = test system: mice (p-phenylquinone-induced abdominal writhing); test: P-phenylquinone-induced abdominal writhing test in mice; type: in vivo; details: Mus musculus, sc, p-phenylquinone i.p. 2 mg/Kg after 20 min pretreatment, calculated for the free base, read-out: ANALGESIA WRITHING ED50 (a)
Method: P-phenylquinone-induced abdominal writhing test in mice
The methodology employed is based on that described by Sigmund et al, Proc. Soc. Exptl. Biol. 95, 729/1957, modified by Milne and Twomey, Agents and Actions, 10, 31/1980.
Male Charles River mice (Swiss Strain), 25-36 g body weight, are used. Animals are allowed food and water ad libitum and are randomized into groups of 10 prior to experimentation. Test compounds are dissolved in either distilled water or distilled water plus 0.1M AMS, and administered by the subcutaneous route in a final volume of 10 ml/Kg. Control animals receive 10 ml/Kg of the appropriate vehicle alone. Following a pretreatment period of 20 min., mice are injected intraperitoneally with p-phenylquinone, 2 mg/Kg at 37° C. in a final volume of […]. Next, the mice are placed, in a groups of 3, in a compartmented perspex box maintained at room temperature and are observed for a period of 8 min. During this period the number of abdominal writhing responses per animal are recorded where writhing consists of an intermittent contraction of the abdomen associated with hind leg extension.
The degree of antinociceptive protection afforded by the test compound is determined as the mean number of writhing responses observed in the treated group (T) expressed as a percentage of the mean number of writhing responses in the control group (C) according to the following formula:
[1-(T/C)]×100%=% graded protection.

[2] = molecular target: μ opioid receptor (Cavia porcellus, UniProt A0ACM8Q262); test: Binding to μ sites (3H-DAGO), receptor affinity study; set-up: species or system guinea pig
[3] = molecular target: T1, kappa opioid receptors (Cavia porcellus, UniProt P41144); test: biochemical; type: binding, guinea pig
T1 construct: fresh guinea pig brain homogenate; from tissue; host or cells: guinea pig whole brain without cerebellum, homogenate

[4] = test system: mice (tail-flick); test: animal or person; type: in vivo; details: Mus musculus, sc, 0.5 h, read-out: ANALGESIA TAIL-FLICK ED50 (a)
[5] = read-out: OPIATE RECEPTORS BINDING ki MU; guinea pig brain homogenate; 3H-DAGO; 40 min, 25° C.
[6] = read-out: OPIATE RECEPTORS BINDING ki MU

T1 sequence (P41144 whole entry): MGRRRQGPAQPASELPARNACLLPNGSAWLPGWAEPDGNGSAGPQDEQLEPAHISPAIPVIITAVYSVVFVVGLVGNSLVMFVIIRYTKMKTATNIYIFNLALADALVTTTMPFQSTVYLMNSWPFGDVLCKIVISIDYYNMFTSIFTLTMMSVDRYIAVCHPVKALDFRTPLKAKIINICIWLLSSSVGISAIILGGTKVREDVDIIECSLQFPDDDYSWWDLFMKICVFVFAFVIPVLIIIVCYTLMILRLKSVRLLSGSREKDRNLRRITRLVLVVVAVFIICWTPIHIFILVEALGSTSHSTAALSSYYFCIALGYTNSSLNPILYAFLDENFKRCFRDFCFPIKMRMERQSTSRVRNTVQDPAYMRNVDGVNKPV
Sequence of μ opioid receptor (A0ACM8Q262 1-400): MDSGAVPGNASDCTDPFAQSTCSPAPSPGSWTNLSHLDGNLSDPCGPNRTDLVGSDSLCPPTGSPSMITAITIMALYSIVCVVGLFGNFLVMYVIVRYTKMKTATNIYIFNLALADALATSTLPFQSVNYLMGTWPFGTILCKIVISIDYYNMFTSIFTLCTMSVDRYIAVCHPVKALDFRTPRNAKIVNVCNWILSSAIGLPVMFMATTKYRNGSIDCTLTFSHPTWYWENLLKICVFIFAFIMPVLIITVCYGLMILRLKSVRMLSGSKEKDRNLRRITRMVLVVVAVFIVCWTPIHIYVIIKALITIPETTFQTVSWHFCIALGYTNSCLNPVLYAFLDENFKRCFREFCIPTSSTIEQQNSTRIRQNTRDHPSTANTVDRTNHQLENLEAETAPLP

Row | Structure (SMILES) | ED50 [1] [mg/kg] | Ki [2, 5] [nM] | Ki [3] [nM] | ED50 [4] [mg/kg] | Ki [2, 6] [nM] | Ki ([2]; guinea pig brain homogenate; 3H-DAGO; 40 min, 25° C.; read-out: OPIATE RECEPTORS BINDING ki MU) [nM]
1 | Cl.O=C(Cc1ccc(Cl)c(Cl)c1)N1CCc2sccc2C1CN1CCCCC1 (stereo not shown) [Example 5, 4-(piperidin-1-yl)methyl-5-(3,4-dichlorophenyl)acetyl-4,5,6,7-tetrahydrothieno[3,2-c]pyridine hydrochloride] | 0.022 | 781 | 1.29 | 0.09 | – | –
2 | Cl.O=C(Cc1ccc2c(c1)CCC2)N1CCc2sccc2C1CN1CCCC1 (stereo not shown) [Example 22, 4-(pyrrolidin-1-yl)methyl-5-(indan-5-yl)acetyl-4,5,6,7-tetrahydrothieno[3,2-c]pyridine hydrochloride] | 0.014 | 104 | – | 0.146 | – | –
3 | O=C(Cc1ccc(Cl)c(Cl)c1)N1CCc2[nH]c3ccccc3c2C1CN1CCCC1 (stereo not shown) [Example 15, 1-(pyrrolidin-1-yl)methyl-2-(3,4-dichlorophenyl)acetyl-1,2,3,4-tetrahydro-5H-pyrido[4,3-b]indole hydrochloride hemihydrate] | > 10 | – | – | > 10 | – | –
4 | CN(C)CC1c2ccsc2CCN1C(=O)Cc1ccc(C(F)(F)F)cc1 (stereo not shown) [Example 7, 4-dimethylaminomethyl-5-(4-trifluoromethylphenyl)acetyl-4,5,6,7-tetrahydrothieno[3,2-c]pyridine 1.5 hydrochloride 1/3 hydrate] | – | – | 3.46 | 0.093 | 513 | –
5 | O=C(Cc1ccc(Cl)c(Cl)c1)N1CCc2[nH]c3ccccc3c2C1CN1CCCCC1 (stereo not shown) [Example 16, 1-(piperidin-1-yl)methyl-2-(3,4-dichlorophenyl)acetyl-1,2,3,4-tetrahydro-5H-pyrido[4,3-b]indole] | > 10 | – | – | > 10 | – | –
6 | O=C(Cc1ccc(Cl)c(Cl)c1)N1CCc2[nH]cnc2C1CN1CCCC1 (stereo not shown) [Example 23, 4-(pyrrolidin-1-yl)methyl-5-(3,4-dichlorophenyl)acetyl-4,5,6,7-tetrahydroimidazo[4,5-c]pyridine] | – | – | – | > 50 | – | > 1000
7 | O=C(Cc1ccc2c(c1)CCC2)N1CCc2sccc2C1CN1CCCCC1 (stereo not shown) [Example 20, 4-(piperidin-1-yl)methyl-5-(indan-5-yl)acetyl-4,5,6,7-tetrahydrothieno[3,2-c]pyridine hydrochloride 1/3 hydrate] | 0.092 | – | – | 0.412 | – | –
8 | O=C(Cc1ccc(Cl)c(Cl)c1)N1CCc2sccc2C1CN1CCCC1 (single isomer, unassigned) [Example 9, (-)-4-(pyrrolidin-1-yl)methyl-5-(3,4-dichlorophenyl)acetyl-4,5,6,7-tetrahydrothieno[3,2-c]pyridine D(-) tartrate hemihydrate] | 0.003 | 47.2 | 1.07 | 0.007 | – | –
9 | O=C(Cc1ccc(C(F)(F)F)cc1)N1CCc2sccc2C1CN1CCCCC1 (single isomer, unassigned) [Example 13, (-)-4-(piperidin-1-yl)methyl-5-(4-trifluoromethylphenyl)acetyl-4,5,6,7-tetrahydrothieno[3,2-c]pyridine L(+) tartrate monohydrate] | 0.01 | 468 | – | 0.054 | – | –
10 | O=C(Cc1ccc(Cl)c(Cl)c1)N1CCc2sccc2C1CN1CCCCC1 (single isomer, unassigned) [Example 10, (-)-4-(piperidin-1-yl)methyl-5-(3,4-dichlorophenyl)acetyl-4,5,6,7-tetrahydrothieno[3,2-c]pyridine L(+) tartrate hemihydrate] | 0.01 | – | – | 0.041 | 500 | –
11 | O=C(Cc1ccc2c(c1)CCCC2)N1CCc2sccc2C1CN1CCCC1 (stereo not shown) [Example 21, 4-(pyrrolidin-1-yl)methyl-5-(5,6,7,8-tetrahydronapht-2-yl) acetyl-4,5,6,7-tetrahydrothieno[3,2-c]pyridine hydrochloride] | 0.022 | 56 | – | 0.236 | – | –
12 | CC(C1c2ccsc2CCN1C(=O)Cc1ccc(Cl)c(Cl)c1)N(C)C.Cl (single isomer, unassigned) [Example 18, 4-[1-(dimethylamino)ethyl]-5-(3,4-dichlorophenyl)acetyl-4,5,6,7-tetrahydrothieno[3,2-c]pyridine hydrochloride] | 0.204 | – | – | 0.824 | – | –
13 | Cl.O.O=C(Cc1ccc(Cl)c(Cl)c1)N1CCc2sccc2C1CN1CCCC1 (stereo not shown) [Example 3, 4-(pyrrolidin-1-yl)methyl-5-(3,4-dichlorophenyl)acetyl-4,5,6,7-tetrahydrothieno[3,2-c]pyridine hydrochloride monohydrate] | 0.004 | 85 | 1.19 | 0.019 | – | –
14 | O=C(Cc1ccc(C(F)(F)F)cc1)N1CCc2sccc2C1CN1CCCCC1 (stereo not shown) [Example 12, 4-(piperidin-1-yl)methyl-5-(4-trifluoromethylphenyl)acetyl-4,5,6,7-tetrahydrothieno[3,2-c]pyridine] | 0.034 | 793 | – | 0.09 | – | –
15 | O=C(Cc1ccc2c(c1)CCCC2)N1CCc2sccc2C1CN1CCCCC1 (stereo not shown) [Example 19, 4-(piperidin-1-yl)methyl-5-(5,6,7,8-tetrahydronapht-2-yl) acetyl-4,5,6,7-tetrahydrothieno[3,2-c]pyridine hydrochloride hemihydrate] | 0.092 | – | – | 0.22 | – | –
16 | Cl.O=C(Cc1ccc(C(F)(F)F)cc1)N1CCc2sccc2C1CN1CCCC1 (stereo not shown) [Example 4, 4-(pyrrolidin-1-yl)methyl-5-(4-trifluoromethylphenyl)acetyl-4,5,6,7-tetrahydrothieno[3,2-c]pyridine hydrochloride] | 0.004 | 39.2 | 1.78 | 0.018 | – | –
17 | CN(C)CC1c2ccsc2CCN1C(=O)Cc1ccc(Cl)c(Cl)c1.Cl (stereo not shown) [Example 6, 4-dimethylaminomethyl-5-(3,4-dichlorophenyl)acetyl-4,5,6,7-tetrahydrothieno[3,2-c]pyridine hydrochloride] | – | 607 | 1.75 | 0.042 | – | –
